Where two headings read alike, the source gives them in different places.
How the values were obtained:
[1] = molecular target: N-terminally truncated (Δ 27) Abl kinase (Homo sapiens, UniProt P00519); experiment: Abl Kinase Activity Inhibition Assay, coupled enzyme system; type: biochemical; conditions: 110 μM ATP, 30° C.
Method: Compounds were screened for their ability to inhibit N-terminally truncated (Δ 27) Abl kinase activity using a standard coupled enzyme system (Fox et al., Protein Sci., 7, pp. 2249 (1998)). Reactions were carried out in a solution containing 100 mM HEPES (pH 7.5), 10 mM MgCl2, 25 mM NaCl, 300 μM NADH, 1 mM DTT and 3% DMSO. Final substrate concentrations in the assay were 110 μM ATP (Sigma Chemicals, St Louis, Mo.) and 70 μM peptide (EAIYAAPFAKKK, American Peptide, Sunnyvale, Calif.). Reactions were carried out at 30° C. and 21 nM Abl kinase. Final concentrations of the components of the coupled enzyme system were 2.5 mM phosphoenolpyruvate, 200 μM NADH, 60 μg/ml pyruvate kinase and 20 μg/ml lactate dehydrogenase.
An assay stock buffer solution was prepared containing all of the reagents listed above with the exception of ATP and the test compound of interest. The assay stock buffer solution (60 μl) was incubated in a 96 well plate with 2 μl of the test compound of interest at final concentrations typically spanning 0.002 μM to 30 μM at 30° C. for 10 min. Typically, a 12 point titration was prepared by serial dilutions (from 1 mM compound stocks) with DMSO of the test compounds in daughter plates. The reaction was initiated by the addition of 5 μl of ATP (final concentration 110 μM). Rates of reaction were obtained using a Molecular Devices Spectramax plate reader (Sunnyvale, Calif.) over 10 min at 30° C. The Ki values were determined from the residual rate data as a function of inhibitor concentration using nonlinear regression (Prism 3.0, Graphpad Software, San Diego, Calif.).

Aurora-2 (Aurora A) = molecular target: T1, Aurora-2 (Aurora A) (Homo sapiens, UniProt O14965); experiment: Aurora-2 (Aurora A) Inhibition Assay, coupled enzyme assay; type: biochemical; conditions: 400 μM ATP, 30° C.; read-out: Aurora A kinase activity Ki
T1 sequence (O14965 1-403): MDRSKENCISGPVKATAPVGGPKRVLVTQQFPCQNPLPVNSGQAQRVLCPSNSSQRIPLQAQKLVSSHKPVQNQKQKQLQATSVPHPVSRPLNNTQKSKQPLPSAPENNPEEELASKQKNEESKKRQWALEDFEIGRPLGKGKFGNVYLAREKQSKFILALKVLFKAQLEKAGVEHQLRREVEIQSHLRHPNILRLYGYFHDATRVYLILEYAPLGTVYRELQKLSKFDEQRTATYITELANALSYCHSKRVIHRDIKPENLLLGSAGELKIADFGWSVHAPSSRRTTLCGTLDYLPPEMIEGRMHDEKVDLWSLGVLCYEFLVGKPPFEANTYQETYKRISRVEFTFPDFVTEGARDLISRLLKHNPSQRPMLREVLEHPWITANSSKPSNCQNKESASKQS
Method: Compounds were screened for their ability to inhibit Aurora-2 using a standard coupled enzyme assay (Fox et al., Protein Sci., (1998) 7, 2249). Assays were carried out in a mixture of 100 mM Hepes (pH7.5), 10 mM MgCl2, 1 mM DTT, 25 mM NaCl, 2.5 mM phosphoenolpyruvate, 300 μM NADH, 30 μg/ml pyruvate kinase and 10 μg/ml lactate dehydrogenase. Final substrate concentrations in the assay were 400 μM ATP (Sigma Chemicals) and 570 μM peptide (Kemptide, American Peptide, Sunnyvale, Calif.). Assays were carried out at 30° C. and in the presence of 40 nM Aurora-2.
An assay stock buffer solution was prepared containing all of the reagents listed above, with the exception of Aurora-2 and the test compound of interest. 55 μl of the stock solution was placed in a 96 well plate followed by addition of 2 μl of DMSO stock containing serial dilutions of the test compound (typically starting from a final concentration of 7.5 μM). The plate was preincubated for 10 minutes at 30° C. and the reaction initiated by addition of 10 μl of Aurora-2. Initial reaction rates were determined with a Molecular Devices SpectraMax Plus plate reader over a 10 minute time course. IC50 and Ki data were calculated from non-linear regression analysis using the Prism software package (GraphPad Prism version 3.0cx for Macintosh, GraphPad Software, San Diego Calif., USA).

Colo205 cells = experiment: Analysis of Cell Proliferation, 3H thymidine incorporation; type: cell-based; conditions: Homo sapiens
Method: Compounds were screened for their ability to inhibit cell proliferation using Colo205 cells obtained from ECACC and using the assay shown below.
Colo205 cells were seeded in 96 well plates and serially diluted compound was added to the wells in duplicate. Control groups included untreated cells, the compound diluent (0.1% DMSO alone) and culture medium without cells. The cells were then incubated for 72 or 96 hrs at 37C in an atmosphere of 5% CO2/95% humidity.
To measure proliferation, 3 h prior to the end of the experiment 0.5 μCi of 3H thymidine was added to each well. Cells were then harvested and the incorporated radioactivity counted on a Wallac microplate beta-counter. Dose response curves were calculated using either Prism 3.0 (GraphPad) or SoftMax Pro 4.3.1 LS (Molecular Devices) software.

Aurora-1 (Aurora B) = Aurora-1 (Aurora B) (Homo sapiens, UniProt Q96GD4); experiment: Aurora-1 (Aurora B) Inhibition Assay (radiometric); type: biochemical; conditions: 800 μM ATP; read-out: Aurora B kinase activity Ki
Method: An assay buffer solution was prepared which consisted of 25 mM HEPES (pH 7.5), 10 mM MgCl2, 0.1% BSA and 10% glycerol. A 22 nM Aurora-B solution, also containing 1.7 mM DTT and 1.5 mM Kemptide (LRRASLG), was prepared in assay buffer. To 22 μL of the Aurora-B solution, in a 96-well plate, was added 2 μl of a compound stock solution in DMSO and the mixture allowed to equilibrate for 10 minutes at 25° C. The enzyme reaction was initiated by the addition of 16 μl stock [γ-^33P]-ATP Pi-ATP solution (˜20 nCi/μL) prepared in assay buffer, to a final assay concentration of 800 μM. The reaction was stopped after 3 hours by the addition of 16 μL 500 mM phosphoric acid and the levels of ^33P incorporation into the peptide substrate were determined by the following method.
A phosphocellulose 96-well plate (Millipore, Cat no. MAPHNOB50) was pre-treated with 100 μL of a 100 mM phosphoric acid prior to the addition of the enzyme reaction mixture (40 μL). The solution was left to soak on to the phosphocellulose membrane for 30 minutes and the plate subsequently washed four times with 200 μL of a 100 mM phosphoric acid. To each well of the dry plate was added 30 μL of Optiphase ‘SuperMix’ liquid scintillation cocktail (Perkin Elmer) prior to scintillation counting (1450 Microbeta Liquid Scintillation Counter, Wallac). Levels of non-enzyme catalyzed background radioactivity were determined by adding 16 μL of the 500 mM phosphoric acid to control wells, containing all assay components (which acts to denature the enzyme), prior to the addition of the [γ-^33P]-ATP solution. Levels of enzyme catalyzed ^33P incorporation were calculated by subtracting mean background counts from those measured at each inhibitor concentration. For each Ki determination 8 data points, typically covering the concentration range 0-10 μM compound, were obtained in duplicate (DMSO stocks were prepared from an initial compound stock of 10 mM with subsequent 1:2.5 serial dilutions). Ki values were calculated from initial rate data by non-linear regression using the Prism software package (Prism 3.0, Graphpad Software, San Diego, Calif.).

[2] = molecular target: T2, T315I mutant of human Abl (Homo sapiens, UniProt P00519, T315I); experiment: Mutant Abl Kinase (T315I) Activity Inhibition Assay (Upstate, radiometric); type: biochemical
T2 construct: purchased Upstate Cell Signaling Solutions (Dundee, UK)

[3] = COLO 205, 96 h, 96 hours, read-out: IC50 cell proliferation after 96 hours
[4] = COLO 205, 72 h, 72 hours, read-out: IC50 cell proliferation after 72 hours

Sequence of Aurora-1 (Aurora B) (Q96GD4 whole entry): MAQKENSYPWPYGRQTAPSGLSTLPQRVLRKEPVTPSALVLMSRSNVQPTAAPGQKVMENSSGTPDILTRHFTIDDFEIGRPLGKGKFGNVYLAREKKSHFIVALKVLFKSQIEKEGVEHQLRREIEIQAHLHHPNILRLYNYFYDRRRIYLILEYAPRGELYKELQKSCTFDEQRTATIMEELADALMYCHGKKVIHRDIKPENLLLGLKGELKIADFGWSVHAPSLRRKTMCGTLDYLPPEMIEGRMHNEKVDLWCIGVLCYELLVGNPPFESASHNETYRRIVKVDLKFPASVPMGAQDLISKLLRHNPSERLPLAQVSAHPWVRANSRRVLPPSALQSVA

Ki [1] [µM] | Ki (Aurora-2 (Aurora A)) [µM] | IC50 (Colo205 cells; [3]) [µM] | Ki (Aurora-1 (Aurora B)) [µM] | Ki [2] [µM] | IC50 (Colo205 cells; [4]) [µM] | Compound
< 0.025 | ≤ 0.01 | ≤ 0.05 | 0.01 to 0.05 | – | – | CCC(=O)Nc1ccc(Sc2nc(Nc3cc(C)n[nH]3)cc(N3CCC(N4[C@H](C)CC[C@H]4C)CC3)n2)cc1 [Compound I-57]
< 0.025 | ≤ 0.01 | ≤ 0.05 | – | < 0.2 | 0.025 to 0.125 | CCC(=O)Nc1ccc(Sc2nc(Nc3cc(C)n[nH]3)cc(N3CCC4(CCN(C)C4)CC3)n2)cc1 [Compound I-53]
– | ≤ 0.01 | ≤ 0.05 | 0.01 to 0.05 | 0.2 to 0.5 | – | CCC(=O)Nc1ccc(Sc2nc(Nc3cc(C)n[nH]3)cc(N3CCC(O)(C(C)(C)C)CC3)n2)cc1 [Compound I-61]
– | ≤ 0.01 | ≤ 0.05 | – | 0.2 to 0.5 | – | CCC(=O)Nc1ccc(Sc2nc(Nc3cc(C)n[nH]3)cc(N3CC[C@H](N4CCCC4)C3)n2)cc1 [Compound I-55]
< 0.025 | – | – | – | – | – | Cc1cc(Nc2cc(N3CCC(F)C3)nc(Sc3ccc(NC(=O)CC(F)(F)F)cc3)n2)[nH]n1 (centres unmarked) [Compound I-78]
< 0.025 | ≤ 0.01 | ≤ 0.05 | 0.01 to 0.05 | – | – | CCC(=O)Nc1ccc(Sc2nc(Nc3cc(C)n[nH]3)cc(N3CC4CN(C(C)C)CC4C3)n2)cc1 (centres unmarked) [Compound I-60]
– | ≤ 0.01 | – | 0.01 to 0.05 | 0.2 to 0.5 | 0.025 to 0.125 | Cc1cc(Nc2cc(N3CCC(N4CCC(F)(F)C4)CC3)nc(Sc3ccc(NC(=O)CC(F)(F)F)cc3)n2)[nH]n1 [Compound I-82]
– | ≤ 0.01 | ≤ 0.05 | 0.01 to 0.05 | – | ≤ 0.025 | CCC(=O)Nc1ccc(Sc2nc(Nc3cc(C4CC4)n[nH]3)cc(N3CCC(N4CCCC4)CC3)n2)cc1 [Compound I-56]
– | ≤ 0.01 | ≤ 0.05 | 0.01 to 0.05 | – | – | CCC(=O)Nc1ccc(Sc2nc(Nc3cc(C4CC4)n[nH]3)cc(N3CC[C@H](N4CCCC4)C3)n2)cc1 [Compound I-62]
– | ≤ 0.01 | – | ≤ 0.01 | < 0.2 | ≤ 0.025 | Cc1cc(Nc2cc(N3CCC(N4CCOCC4)CC3)nc(Sc3ccc(NC(=O)CC(F)(F)F)cc3)n2)[nH]n1 [Compound I-72]
– | ≤ 0.01 | – | 0.01 to 0.05 | – | 0.025 to 0.125 | Cc1cc(Nc2cc(N3CCC(N4CCOCC4)CC3)nc(Sc3ccc(NC(=O)C4CC4(F)F)cc3)n2)[nH]n1 (centres unmarked) [Compound I-75]

Further lines, the compound ahead of its results:

Compound | Ki [1] [µM] | Ki (Aurora-2 (Aurora A)) [µM] | IC50 (Colo205 cells; [3]) [µM] | Ki (Aurora-1 (Aurora B)) [µM] | Ki [2] [µM] | IC50 (Colo205 cells; [4]) [µM]
Cc1cnc(Nc2cc(N3CC[C@H](O)C3)nc(Sc3ccc(NC(=O)C4CC4)cc3)n2)s1 [Compound I-12] | 0.025 to 0.1 | ≤ 0.01 | 0.05 to 0.2 | – | – | –
CCC(=O)Nc1ccc(Sc2nc(Nc3cc(C)[nH]n3)cc(N3CC[C@H](N(C)C)C3)n2)cc1 [Compound I-46] | < 0.025 | ≤ 0.01 | ≤ 0.05 | 0.01 to 0.05 | – | –
Cc1cnc(Nc2cc(N3CCC(N4CCOCC4)CC3)nc(Sc3ccc(NC(=O)C4CC4)cc3)n2)s1 [Compound I-4] | < 0.025 | ≤ 0.01 | – | – | – | –
CCC(=O)Nc1ccc(Sc2nc(Nc3cc(C)n[nH]3)cc(N3CCC(N4CCC(F)C4)CC3)n2)cc1 (centres unmarked) [Compound I-43] | – | ≤ 0.01 | ≤ 0.05 | 0.01 to 0.05 | – | –
CCN[C@H]1CCN(c2cc(Nc3cc(C)n[nH]3)nc(Sc3ccc(NC(=O)CC)cc3)n2)C1 [Compound I-39] | < 0.025 | ≤ 0.01 | ≤ 0.05 | 0.01 to 0.05 | – | –
CCC(=O)Nc1ccc(Sc2nc(Nc3cc(C)n[nH]3)cc(N3CCC(C)(O)CC3)n2)cc1 [Compound I-21] | – | ≤ 0.01 | 0.05 to 0.2 | 0.01 to 0.05 | – | –
CCC(=O)Nc1ccc(Sc2nc(Nc3cc(C)n[nH]3)cc(N3CCC(N4CCCC4)CC3)n2)cc1 [Compound I-41] | 0.025 to 0.1 | ≤ 0.01 | ≤ 0.05 | – | < 0.2 | 0.025 to 0.125
CCC(=O)Nc1ccc(Sc2nc(Nc3cc(C)n[nH]3)cc(N3CCC(NC(C)(C)C)CC3)n2)cc1 [Compound I-7] | 0.025 to 0.1 | ≤ 0.01 | – | 0.01 to 0.05 | < 0.2 | –
Cc1cnc(Nc2cc(N3CCC(N4CCCC4)CC3)nc(Sc3ccc(NC(=O)C4CC4)cc3)n2)s1 [Compound I-38] | < 0.025 | ≤ 0.01 | ≤ 0.05 | 0.01 to 0.05 | – | –
CCC(=O)Nc1ccc(Sc2nc(Nc3cc(C)n[nH]3)cc(N3CC[C@@H](N(C)C)C3)n2)cc1 [Compound I-24] | < 0.025 | ≤ 0.01 | 0.05 to 0.2 | – | – | –
CN1CCC2(CCN(c3cc(Nc4cc(C5CC5)n[nH]4)nc(Sc4ccc(NC(=O)C5CC5)cc4)n3)CC2)C1 [Compound I-51] | – | ≤ 0.01 | ≤ 0.05 | 0.01 to 0.05 | – | –
CCC(=O)Nc1ccc(Sc2nc(Nc3cc(C)n[nH]3)cc(N3CCC(N4CCOCC4)CC3)n2)cc1 [Compound I-40] | – | ≤ 0.01 | ≤ 0.05 | 0.01 to 0.05 | – | –
CN[C@H]1CCN(c2cc(Nc3ncc(C)s3)nc(Sc3ccc(NC(=O)C4CC4)cc3)n2)C1 [Compound I-52] | < 0.025 | ≤ 0.01 | ≤ 0.05 | – | – | –
